23 molecules from US20230203043A1, “NOVEL IMIDAZOPYRAZINE DERIVATIVES” (Hoffmann-La Roche Inc., priority 2020, published 2023) can be followed below.

Counter-ions that a name gives are not always drawn.

One experiment concerns Acinetobacter baumannii ATCC17961. As to the kind of experiment: Antimicrobial susceptibility testing: 90% growth inhibitory concentration (IC90) determination in Iso-Sensitest broth, OD600 growth. The experiment is classed as cell-based. To be noted: Acinetobacter baumannii, ATCC17961, 16 h, read-out: A. baumannii ATCC 17961 IC90 (uM), strain ATCC 17961, OD600 growth over 16 h. The gist of the method:
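OD600 read every 20 min for 16 h at 35±2° C; inhibition taken in log phase to derive IC90. Twofold, 10-point dilutions (e.g. 50–0.097 μM final), inoculum ~5×10^(5) CFU/ml.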
Broadly, the IC90 is the concentration needed for an effect of 90%. For `NCCC(=O)N1CCN(C(=O)c2ccc(Nc3nccn4c(-c5c[nH]nc5C(F)(F)F)cnc34)cc2Cl)CC1` [Example 400, 3-amino-1-[4-[2-chloro-4-[[3-[3-(trifluoromethyl)-1H-pyrazol-4-yl]imidazo[1,2-a]pyrazin-8-yl]amino]benzoyl]piperazin-1-yl]propan-1-one formate], the IC90 worked out at 0.217 µM.

Consider `CCc1cc(Nc2nccn3c(-c4c[nH]nc4C(F)(F)F)cnc23)ccc1C(=O)NCCCNC(=O)CCN` [Example 212, N-[3-(3-aminopropanoylamino)propyl]-2-ethyl-4-[[3-[3-(trifluoromethyl)-1H-pyrazol-4-yl]imidazo[1,2-a]pyrazin-8-yl]amino]benzamide formate], for which the IC90 worked out at 0.296 µM. On the same count and under the same terms, for `N#CCn1cc(-c2cnc3c(Nc4ccc(C(=O)N5CCN(C(=O)N6CC[C@H](N)C6)CC5)c(Cl)c4)nccn23)c(C(F)(F)F)n1` [Example 180, 2-[4-[8-[4-[4-[(3S)-3-aminopyrrolidine-1-carbonyl]piperazine-1-carbonyl]-3-chloroanilino]imidazo[1,2-a]pyrazin-3-yl]-3-(trifluoromethyl)pyrazol-1-yl]acetonitrile formate] the value was 0.182 µM; for `CCc1cc(Nc2nccn3c(-c4cn(CC(F)F)nc4C(F)(F)F)cnc23)ccc1C(=O)NCC(=O)NCC1CCN1` (centres unmarked) [Example 530, N-[2-(azetidin-2-ylmethylamino)-2-oxo-ethyl]-4-[[3-[1-(2,2-difluoroethyl)-3-(trifluoromethyl)pyrazol-4-yl]imidazo[1,2-a]pyrazin-8-yl]amino]-2-ethyl-benzamide formate], 0.327 µM; for `Cc1cc(Nc2nccn3c(-c4cn(CC#N)nc4C(F)(F)F)cnc23)ccc1C(=O)N1CCN(C(=O)N[C@H]2CNC[C@@H]2O)CC1` [Example 376, 4-[4-[[3-[1-(cyanomethyl)-3-(trifluoromethyl)pyrazol-4-yl]imidazo[1,2-a]pyrazin-8-yl]amino]-2-methylbenzoyl]-N-[(3S,4S)-4-hydroxypyrrolidin-3-yl]piperazine-1-carboxamide formate], 0.43 µM. Still for that read-out and setting: for `N#CCn1cc(-c2cnc3c(Nc4ccc(C(=O)NCC(=O)N[C@@H]5CCNC5)c(Cl)c4)nccn23)c(C(F)(F)F)n1` [Example 723, 2-chloro-4-[[3-[1-(cyanomethyl)-3-(trifluoromethyl)pyrazol-4-yl]imidazo[1,2-a]pyrazin-8-yl]amino]-N-[2-oxo-2-[[(3R)-pyrrolidin-3-yl]amino]ethyl]benzamide formate] the value was 0.459 µM; for `CCc1cc(Nc2nccn3c(-c4cn(C5CCC5)nc4C(F)(F)F)cnc23)ccc1C(=O)NCCOCCN1CCCC1` [Example 619, 4-((3-(1-cyclobutyl-3-(trifluoromethyl)-1H-pyrazol-4-yl)imidazo[1,2-a]pyrazin-8-yl)amino)-2-ethyl-N-(2-(2-(pyrrolidin-1-yl)ethoxy)ethyl)benzamide formate], 0.131 µM; for `CCc1cc(Nc2nccn3c(-c4cn(CC#N)nc4C(F)(F)F)cnc23)ccc1C(=O)NCCNC(=O)[C@@H](C)N` [Example 625, (R)-N-(2-(2-aminopropanamido)ethyl)-4-((3-(1-(cyanomethyl)-3-(trifluoromethyl)-1H-pyrazol-4-yl)imidazo[1,2-a]pyrazin-8-yl)amino)-2-ethylbenzamide formate], 0.176 µM. Consider `CCc1cc(Nc2nccn3c(-c4cn(CC(F)F)nc4C(F)(F)F)cnc23)ccc1C(=O)NC1C2CNCC21` (centres unmarked) [Example 562, N-(3-azabicyclo[3.1.0]hexan-6-yl)-4-((3-(1-(2,2-difluoroethyl)-3-(trifluoromethyl)-1H-pyrazol-4-yl)imidazo[1,2-a]pyrazin-8-yl)amino)-2-ethylbenzamide formate], for which the IC90 worked out at 0.305 µM.

Still in this experiment, the particulars now being: Acinetobacter baumannii, ATCC17961, 16 h, strain ATCC 17961, OD600 growth over 16 h, read-out: A. baumannii ATCC 17961 IC90.
Turning to `CCc1cc(Nc2nccn3c(-c4cn(CC(F)F)nc4C(F)(F)F)cnc23)ccc1C(=O)NCCNC(=O)[C@H]1C[C@H](N)C1` [Example 488, N-(2-((1r,3r)-3-aminocyclobutane-1-carboxamido)ethyl)-4-((3-(1-(2,2-difluoroethyl)-3-(trifluoromethyl)-1H-pyrazol-4-yl)imidazo[1,2-a]pyrazin-8-yl)amino)-2-ethylbenzamide formate], the IC90 was determined as 0.147 µM. `C#CCn1cc(-c2cnc3c(Nc4ccc(C(=O)N[C@@H](C)CN)c(CC)c4)nccn23)c(C(F)(F)F)n1` [Example 55, N-[(2S)-1-aminopropan-2-yl]-2-ethyl-4-[[3-[1-prop-2-ynyl-3-(trifluoromethyl)pyrazol-4-yl]imidazo[1,2-a]pyrazin-8-yl]amino]benzamide]: the IC90 stood at 0.167 µM. Regarding `CCc1cc(Nc2nccn3c(-c4cn(CC#N)nc4C(F)(F)F)cnc23)ccc1C(=O)NCCNC(=O)[C@@H]1C[C@@H](O)CN1` [Example 637, (2S,4R)-N-(2-(4-((3-(1-(cyanomethyl)-3-(trifluoromethyl)-1H-pyrazol-4-yl)imidazo[1,2-a]pyrazin-8-yl)amino)-2-ethylbenzamido)ethyl)-4-hydroxypyrrolidine-2-carboxamide], the IC90 was 0.226 µM. On to `O=C(c1ccc(Nc2nccn3c(-c4c[nH]nc4C(F)(F)F)cnc23)cc1Cl)N1CC2(C1)CN(C(=O)[C@@H]1CCCN1)C2` [Example 688, (S)-(2-chloro-4-((3-(3-(trifluoromethyl)-1H-pyrazol-4-yl)imidazo[1,2-a]pyrazin-8-yl)amino)phenyl)(6-prolyl-2,6-diazaspiro[3.3]heptan-2-yl)methanone], for which the IC90 amounted to 0.349 µM.

For `CCc1cc(Nc2nccn3c(-c4cn(CC#N)nc4C(F)(F)F)cnc23)ccc1C(=O)N[C@H](C)CNC(=O)[C@@H]1C[C@@H](O)CN1` [Example 712, (2S,4R)-N-((R)-2-(4-((3-(1-(cyanomethyl)-3-(trifluoromethyl)-1H-pyrazol-4-yl)imidazo[1,2-a]pyrazin-8-yl)amino)-2-ethylbenzamido)propyl)-4-hydroxypyrrolidine-2-carboxamide], the IC90 was 0.41 µM.

Regarding `C#CCNC(=O)c1c(C)cc(Nc2nccn3c(-c4cn(CC=C)nc4C(F)(F)F)cnc23)cc1F` [Example 41, 2-fluoro-6-methyl-4-[[3-[1-prop-2-enyl-3-(trifluoromethyl)pyrazol-4-yl]imidazo[1,2-a]pyrazin-8-yl]amino]-N-prop-2-ynylbenzamide], the IC90 turned out to be 0.254 µM. On the same count and under the same terms, for `CCc1cc(Nc2nccn3c(-c4cn(CC(F)F)nc4C(F)(F)F)cnc23)ccc1C(=O)NCC(=O)NCC1CCCN1` (centres unmarked) [Example 548, 4-[[3-[1-(2,2-difluoroethyl)-3-(trifluoromethyl)pyrazol-4-yl]imidazo[1,2-a]pyrazin-8-yl]amino]-2-ethyl-N-[2-oxo-2-(pyrrolidin-2-ylmethylamino)ethyl] benzamide formate] the value was 0.267 µM. Same read-out and setting: for `CCc1cc(Nc2nccn3c(-c4c[nH]nc4C(F)(F)F)cnc23)ccc1C(=O)N1CCN(C(=O)C2(O)CCNCC2)CC1` [Example 355, [2-ethyl-4-[[3-[3-(trifluoromethyl)-1H-pyrazol-4-yl]imidazo[1,2-a]pyrazin-8-yl]amino]phenyl]-[4-(4-hydroxypiperidine-4-carbonyl)piperazin-1-yl]methanone hydrochloride] the value was 1.3 µM; for `O=C(c1ccc(Nc2nccn3c(-c4cn(C(F)F)nc4C(F)(F)F)cnc23)cc1Cl)N1CC2(CNC2)C1` [Example 79, [2-chloro-4-[[3-[1-(difluoromethyl)-3-(trifluoromethyl)pyrazol-4-yl]imidazo[1,2-a]pyrazin-8-yl]amino]phenyl]-(2,6-diazaspiro[3.3]heptan-2-yl)methanone], 0.222 µM; for `C#CCn1cc(-c2cnc3c(Nc4cc(C)c(C(=O)N5CCN(C(=O)[C@H]6CC[C@H](O)N6)CC5)c(F)c4)nccn23)c(C(F)(F)F)n1` [Example 646, (4-(2-fluoro-6-methyl-4-((3-(1-(prop-2-yn-1-yl)-3-(trifluoromethyl)-1H-pyrazol-4-yl)imidazo[1,2-a]pyrazin-8-yl)amino)benzoyl)piperazin-1-yl)((2R,5S)-5-hydroxypyrrolidin-2-yl)methanone], 0.243 µM.

On to `C=CCn1cc(-c2cnc3c(Nc4ccc(C(=O)N[C@H](C)CN)c(CC)c4)nccn23)c(C(F)(F)F)n1` [Example 108, N-[(2R)-1-aminopropan-2-yl]-2-ethyl-4-[[3-[1-prop-2-enyl-3-(trifluoromethyl)pyrazol-4-yl]imidazo[1,2-a]pyrazin-8-yl]amino]benzamide], for which the IC90 was found to be 0.302 µM. For `CCc1cc(Nc2nccn3c(-c4cn(CCF)nc4C(F)(F)F)cnc23)ccc1C(=O)N1CCN(C(=O)C2CCNCC2)CC1` [Example 71, [2-ethyl-4-[[3-[1-(2-fluoroethyl)-3-(trifluoromethyl)pyrazol-4-yl]imidazo[1,2-a]pyrazin-8-yl]amino]phenyl]-[4-(piperidine-4-carbonyl)piperazin-1-yl]methanone], the IC90 came to 0.593 µM. Still for that read-out and setting: for `CCc1cc(Nc2nccn3c(-c4cn(CC(=O)O)nc4C(F)(F)F)cnc23)ccc1C(=O)NCCOCCN` [Example 271, 2-[4-[8-[4-[2-(2-aminoethoxy)ethylcarbamoyl]-3-ethylanilino]imidazo [1,2-a]pyrazin-3-yl]-3-(trifluoromethyl)pyrazol-1-yl]acetic acid] the value was 3.07 µM.

Still in this experiment, the particulars now being: strain ATCC 17961, OD600 growth over 16 h, read-out: A. baumannii ATCC 17961 IC90.
For `N[C@H]1CC[C@@H](NC(=O)N2CCN(C(=O)c3ccc(Nc4nccn5c(-c6c[nH]nc6C(F)(F)F)cnc45)cc3Cl)CC2)C1` [Example 238, N-[(1R,3S)-3-aminocyclopentyl]-4-[2-chloro-4-[[3-[3-(trifluoromethyl)-1H-pyrazol-4-yl]imidazo[1,2-a]pyrazin-8-yl]amino]benzoyl] piperazine-1-carboxamide formate], the IC90 came out at 0.2 µM.
